The test system of assay [1] is phosphorylated AKT Ser473 (pAKT S473), mTORC2 activity, PC3 cells. The experiment in a line: mTOR target engagement assay, immunofluorescent cell-based, pAKT S473 readout (mTORC2 activity). To be noted: Homo sapiens. The essentials: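 After blocking, cells were stained overnight at 4 °C with anti-pAKT S473 antibody, then a fluorescent secondary; inhibition was read as reduced fluorescence intensity.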

Assay [2] relates to phosphorylated 4E-BP1 Thr37/46 (p4E-BP1 Thr37/46), mTORC1 activity, PC3 cells. The experiment in a line: mTOR target engagement assay, immunofluorescent cell-based, p4E-BP1 Thr37/46 readout (mTORC1 activity). To be noted: Homo sapiens, read-out: p4E-BP1 Thr37/46 IC50. The procedure: The target engagement of mTOR kinase inhibitors was evaluated using an immunofluorescent cell-based assay. In this assay, inhibition of mTORC1 activity was measured by the reduction in the level of phosphorylated 4E-BP1^[…] (p4E-BP1 Thr37/46), and inhibition of mTORC2 activity was measured by the reduction of phosphorylated AKT^Ser473 (pAKT S473).
PC3 cells (prostate tumor cell-line that contains a mutation in the tumor suppressor PTEN, that promotes the phosphorylation and activation of AKT and 4E-BP1) were used in the immunofluorescence assay. PC3 cells were seeded on 384 well plates (black clear bottom, Matrix #4332) overnight. PC3 cells were then treated with 40 μl of the serially diluted test compounds (in 5% fetal bovine serum, F12 medium containing 0.25% DMSO) for ninety minutes at 37° C. The test compound solution was removed, and the plates were washed gently two times with 25 μl phosphate buffered saline (PBS). The cells were fixed by adding 25 μl of Prefer reagent (from Anatech LTD, Cat#414, a glyoxal fixative for fixing proteins within a cell) for sixty minutes followed by three washes with PBS. 5% Goat serum in PBS/0.3% Triton was used to block non-specific binding (60 minutes).
The primary antibodies targeting pAKT S473 and p4E-BP1 Thr37/46 were diluted into PBS/0.3% Triton and incubated with the cells overnight at 4° C. The antibodies targeting pAKTS473 (Cat#4085, Cell signaling) and p4E-BP1 Thr37/46 (Cat#2855, Cell signaling) were used at a 1:100 dilution. Plates were washed three times with PBS/0.1% Tween 20 before adding the secondary antibody at a 1:200 dilution. (goat anti-rabbit containing a fluorescent label, Alexa Fluor 488, Cat#A11008, Invitrogen) in PBS/0.3% Triton for 60 minutes.
Finally, the plates were washed three times with PBS/0.1% Tween 20 and the fluorescent intensity was read using an Analyst HT from Molecular Devices. The fluorescent intensity values from the serially diluted compound treatment group were analyzed using the Xlfit 4 program ([…]) (Formula 205: Y=Bottom+(Top-Bottom)/(1+(IC50/X)^Hillslope) to generate the IC50 value. Where Top is the maximum signal without Compound (+DMSO only) and Bottom represents maximum inhibition. Y is the fluorescence at some compound concentration. The control used to determine the fluorescent intensities for 100% pAKT S473 or 100% phosphorylated p4E-BP1 Thr37/46 were measured from untreated wells that contained only DMSO, instead of test compound.

The mark [3] stands for this setting: PC-3, PC3 cells, compound treatment ninety minutes at 37° C.

Like-named read-outs stand apart in the source and are kept apart here.

Take `CS(=O)(=O)c1c([C@@H]2C[C@H]3CC[C@@H](C2)N3c2noc(=O)[nH]2)nc2c(-c3ccc(-c4ccccc4)nc3)cnn2c1N` [Compound 8.74, 3-((1R,3s,5S)-3-(7-amino-6-(methylsulfonyl)-3-(6-phenylpyridin-3-yl)pyrazolo[1,5-a]pyrimidin-5-yl)-8-azabicyclo[3.2.1]octan-8-yl)-1,2,4-oxadiazol-5(4H)-one]: the IC50 in assay [1] (PC-3, PC3 cells) is 1 to 10 µM; in assay [2] (PC-3, PC3 cells) it was above 10 µM.
Turning to `CS(=O)(=O)c1c([C@@H]2C[C@H]3CC[C@@H](C2)N3C(=O)c2nnc[nH]2)nc2c(-c3ccc(-c4cccc(F)c4F)nc3)cnn2c1N` [Compound 3.47, ((1R,3s,5S)-3-(7-amino-3-(6-(2,3-difluorophenyl)pyridin-3-yl)-6-(methylsulfonyl)pyazolo[1,5-a]pyrimidin-5-yl)-8-azabicyclo[3.2.1]octan-8-yl)(4H-1,2,4-triazol-3-yl)methanone], the IC50 in assay [1] (PC-3, Table 3-1, PC3 cells) was 0.001 to 0.1 µM; in assay [2] (PC-3, Table 3-1, PC3 cells) it was 0.001 to 0.1 µM.
`CCS(=O)(=O)c1c([C@@H]2C[C@H]3CC[C@@H](C2)N3C(=O)c2nnc[nH]2)nc2c(-c3ccc(-c4ccccc4)nc3)cnn2c1N` [Compound 3.161, ((1R,3s,5S)-3-(7-amino-6-(ethylsulfonyl)-3-(6-phenylpyridin-3-yl)pyrazolo[1,5-a]pyrimidin-5-yl)-8-azabicyclo[3.2.1]octan-8-yl)(4H-1,2,4-triazol-3-yl)methanone]: the IC50 in assay [1] (PC-3, Table 3-1, PC3 cells) was in the range of 0.001 to 0.1 µM; in assay [2] (PC-3, Table 3-1, PC3 cells) it was 0.001 to 0.1 µM.
Turning to `Nc1cc([C@@H]2C[C@H]3CC[C@@H](C2)N3C(=O)c2ncn[nH]2)nc2c(-c3ccc(CO)nc3)cnn12` [Compound 7.97, ((1R,3s,5S)-3-(7-amino-3-(6-(hydroxymethyl)pyridin-3-yl)pyrazolo[1,5-a]pyrimidin-5-yl)-8-azabicyclo[3.2.1]octan-8-yl)(1H-1,2,4-triazol-5-yl)methanone], the IC50 is above 10 µM in assay [1] (PC-3, PC3 cells) and 1 to 10 µM in assay [2] (PC-3, PC3 cells).
Turning to `COCc1cc(-c2ccc(-c3cnn4c(N)c(C(C)=O)c([C@@H]5C[C@H]6CC[C@@H](C5)N6C(=O)c5nnc[nH]5)nc34)cn2)ccc1OC` [Compound 1.1.45, 1-(5-((1R,3s,5S)-8-(4H-1,2,4-triazole-3-carbonyl)-8-azabicyclo[3.2.1]octan-3-yl)-7-amino-3-(6-(4-methoxy-3-(methoxymethyl)phenyl)pyridin-3-yl)pyrazolo[1,5-a]pyrimidin-6-yl)ethanone], the IC50 in assay [1] (setting [3]) and in assay [2] (setting [3]) was 0.001 to 0.1 µM each time.
For `CC(=O)c1c([C@@H]2C[C@H]3CC[C@@H](C2)N3C(=O)c2nnc[nH]2)nc2c(-c3ccc(C(O)CC(C)C)nc3)cnn2c1N` (stereo partly drawn) [Compound 7.6, 1-(5-((1R,3s,5S)-8-(4H-1,2,4-triazole-3-carbonyl)-8-azabicyclo[3.2.1]octan-3-yl)-7-amino-3-(6-(1-hydroxy-3-methylbutyl)pyridin-3-yl)pyrazolo[1,5-a]pyrimidin-6-yl)ethanone], the IC50 in assay [1] (setting [3]) fell in the range of 1 to 10 µM; in assay [2] (setting [3]) it was 0.1 to 1 µM.
As for `CS(=O)(=O)c1c([C@@H]2C[C@H]3CC[C@@H](C2)N3C(=O)c2cnn[nH]2)nc2c(-c3ccc(-c4ccccc4)nc3)cnn2c1N` [Compound 3.3, ((1R,3s,5S)-3-(7-amino-6-(methylsulfonyl)-3-(6-phenylpyridin-3-yl)pyrazolo[1,5-a]pyrimidin-5-yl)-8-azabicyclo[3.2.1]octan-8-yl)(1H-1,2,3,-triazol-5-yl)methanone], the IC50 fell in the range of 0.001 to 0.1 µM in assay [1] (PC-3, Table 3-1, PC3 cells) and 0.1 to 1 µM in assay [2] (PC-3, Table 3-1, PC3 cells).
The like results for `Cc1ccc(-c2ccc(-c3cnn4c(N)c(S(C)(=O)=O)c([C@@H]5C[C@H]6CC[C@@H](C5)N6C(=O)c5nnc[nH]5)nc34)cn2)cc1F` [Compound 3.45, ((1R,3s,5S)-3-(7-amino-3-(6-(3-fluoro-4-methylphenyl)pyridin-3-yl)-6-(methylsulfonyl)pyrazolo[1,5-a]pyrimidin-5-yl)-8-azabicyclo[3.2.1]octan-8-yl)(4H-1,2,4-triazol-3-yl)methanone] were, in that order, 0.001 to 0.1 µM and 0.001 to 0.1 µM.
For `COc1ccc(-c2ncc(-c3cnn4c(N)c(S(C)(=O)=O)c([C@@H]5C[C@H]6CC[C@@H](C5)N6C(=O)CO)nc34)cn2)c(F)c1F` [Compound 3.149, 1-((1R,3s,5S)-3-(7-amino-3-(2-(2,3-difluoro-4-methoxyphenyl)pyrimidin-5-yl)-6-(methylsulfonyl)pyrazolo[1,5-a]pyrimidin-5-yl)-8-azabicyclo[3.2.1]octan-8-yl)-2-hydroxyethanone] the same measures were 1 to 10 µM and 0.1 to 1 µM.
Turning to `CC(=O)c1c([C@@H]2C[C@H]3CC[C@@H](C2)N3C(=O)c2nnc[nH]2)nc2c(-c3ccc(-c4ccc(F)cc4)nc3)cnn2c1N` [Compound 1.1.163, 1-(5-((1R,3s,5S)-8-(4H-1,2,4-triazole-3-carbonyl)-8-azabicyclo[3.2.1]octan-3-yl)-7-amino-3-(6-(4-fluorophenyl)pyridin-3-yl)pyrazolo[1,5-a]pyrimidin-6-yl)ethanone], the IC50 fell in the range of 0.001 to 0.1 µM in assay [1] (setting [3]) and 0.1 to 1 µM in assay [2] (setting [3]).
On to `CS(=O)(=O)c1c([C@@H]2C[C@H]3CC[C@@H](C2)N3C(=O)c2nnc[nH]2)nc2c(-c3ccc(-c4cccc(F)c4)nc3)cnn2c1N` [Compound 3.46, ((1R,3s,5S)-3-(7-amino-3-(6-(3-fluorophenyl)pyridin-3-yl)-6-(methylsulfonyl)pyrazolo[1,5-a]pyrimidin-5-yl)-8-azabicyclo[3.2.1]octan-8-yl)(4H-1,2,4-triazol-3-yl)methanone], for which the IC50 in assay [1] (PC-3, Table 3-1, PC3 cells) lay within 0.001 to 0.1 µM; in assay [2] (PC-3, Table 3-1, PC3 cells), 0.001 to 0.1 µM.
Take `COCCOc1ccc(-c2ccc(-c3cnn4c(N)c(C5CC5)c([C@@H]5C[C@H]6CC[C@@H](C5)N6C(=O)c5nnc[nH]5)nc34)cn2)cc1` [Compound 4.14, ((1R,3s,5S)-3-(7-amino-6-cyclopropyl-3-(6-(4-(2-methoxyethoxy)phenyl)pyridin-3-yl)pyrazolo[1,5-a]pyrimidin-5-yl)-8-azabicyclo[3.2.1]octan-8-yl)(4H-1,2,4-triazol-3-yl)methanone]: the IC50 in assay [1] (setting [3]) and in assay [2] (setting [3]) was 0.1 to 1 µM each time.
Consider `C[C@H](O)C(=O)N1[C@@H]2CC[C@H]1C[C@H](c1nc3c(-c4ccc(-c5ccccc5)nc4)cnn3c(N)c1S(C)(=O)=O)C2` [Compound 3.27], for which the IC50 in assay [1] (PC-3, Table 3-1, PC3 cells) was 0.1 to 1 µM; in assay [2] (PC-3, Table 3-1, PC3 cells), 0.1 to 1 µM.
For `COc1c(F)cc(-c2ccc(-c3cnn4c(N)c(C(C)=O)c([C@@H]5C[C@H]6CC[C@@H](C5)N6C(=O)c5nnc[nH]5)nc34)cn2)cc1F` [Compound 1.1.64, 1-(5-((1R,3s,5S)-8-(4H-1,2,4-triazole-3-carbonyl)-8-azabicyclo[3.2.1]octan-3-yl)-7-amino-3-(6-(3,5-difluoro-4-methoxyphenyl)pyridin-3-yl)pyrazolo[1,5-a]pyrimidin-6-yl)ethanone], the IC50 in assay [1] (setting [3]) and in assay [2] (setting [3]) was 0.1 to 1 µM in each case.
Take `CS(=O)(=O)c1c([C@H]2CC3CC[C@H](C2)N3C(=O)c2ncn[nH]2)nc2c(-c3ccc(C4CCC4)nc3)cnn2c1N` [Compound 3.167, ((1R,3s,5S)-3-(7-amino-3-(6-cyclobutylpyridin-3-yl)-6-(methylsulfonyl)pyrazolo[1,5-a]pyrimidin-5-yl)-8-azabicyclo[3.2.1]octan-8-yl)(1H-1,2,4-triazol-5-yl)methanone]: the IC50 in assay [1] (PC-3, Table 3-1, PC3 cells) was 0.1 to 1 µM; in assay [2] (PC-3, Table 3-1, PC3 cells) it was 0.1 to 1 µM.
Turning to `COc1ccc(-c2ncc(-c3cnn4c(N)c(S(C)(=O)=O)c([C@@H]5C[C@H]6CC[C@@H](C5)N6C(=O)c5nnc[nH]5)nc34)cn2)c(F)c1F` [Compound 3.148, ((1R,3s,5S)-3-(7-amino-3-(2-(2,3-difluoro-4-methoxyphenyl)pyrimidin-5-yl)-6-(methylsulfonyl)pyrazolo[1,5-a]pyrimidin-5-yl)-8-azabicyclo[3.2.1]octan-8-yl)(4H-1,2,4-triazol-3-yl)methanone], the IC50 in assay [1] (PC-3, Table 3-1, PC3 cells) was 0.1 to 1 µM; in assay [2] (PC-3, Table 3-1, PC3 cells), 0.1 to 1 µM.

The values are drawn from US9227971B2, “Pyrazolo[1,5-a]pyrimidine compounds as mTOR inhibitors” (Merck Sharp & Dohme Corp., priority 2010, dated 2016).
